Experimental data reported in patent US20050214738A1, “Conditional allele system” (priority 2003, published 2005).
Where a SMILES comes first, the peptide text is derived from it. The star is where a group is joined. Cbz = O=C(OCc1ccccc1)*

Columns and labels:
GSK-3βFRB* = GSK-3βFRB* (UniProt P26883+P42345, K2095P/T2098L/W2101F); assay: Inducible stabilization of GSK-3βFRB* in knock-in MEFs (Western blot); assay type: cell-based, mouse; design: The minimal FRB domain comprises amino acids 2025-2114 of human mTor; endogenous in cells; host or cells: MEFs from GSK-3β^FRB* knock-in mice (fusion expressed from the targeted endogenous locus); conditions: heterozygous MEFs; for GSK-3βFRB* stability when stabilization is reversed with FK506 in presence of protease inhibitor: inhibitor added 30 minutes before FK506, 9 h
Method: MEFs cell lines were prepared from E14.5-E16.5 embryos of indicated genotypes by eviscerating the embryos in HBSS, treating the remaining tissue with 0.2% collagenase and trypsin, and plating the cells in DMEM containing 10% FCS, antibiotics, and 0.1 mM β-mercaptoethanol. Once established, the MEFs were cultured using standard techniques and treated with various small molecules as indicated.
Western Blot analysis was carried out using cell lysates prepared in RIPA buffer (10 mM Tris pH 7.2, 150 mM NaCl, 0.1% SDS, 1% Triton X-100, 1% deoxycholate, 5 mM EDTA, protease inhibitor cocktail (Invitrogen Life Technologies)) and then separated using standard SDS/PAGE before being transferred to PVDF (Millipore) using standard Western blotting procedures. The anti-GSK-3β antibody, used at 1:2500, the anti-HSP-90 antibody, 1:2500, and the anti-FKBP12 antibody, 1:2500, were purchased from BD Transduction Labs. The anti-β-catenin antibody, 1:2000, and anti-HSP-70 antibody, 1:1000 were purchased from Santa Cruz Biotechnology. […] In all cases, Western blots were incubated overnight with the appropriate primary antibodies in TBST (10 mM Tris 8.0, 150 mM NaCl, 0.1% Tween-20) containing 10% dry milk, and then washed 3 times with TBST. The blots were subsequently incubated for 30 minutes with HRP-conjugated secondary antibodies from Jackson Immunoresearch, washed 3 more times with TBST, and then developed using standard ECL reagents (Amersham Biosciences) and Kodak XAR film.

FRB = target: T1, FRB (Homo sapiens, UniProt P42345+P62942); assay: SeAP reporter assay, dimerization of FRB-VP16 to FKBP3-GAL4DBD in COS-1 cells; assay type: cell-based; conditions: wild-type FRB(KTW)-VP16; ±95% confidence intervals
T1 construct: The minimal FRB domain comprises amino acids 2025-2114 of human mTor; expressed in transfected cells; host or cells: COS-1 cells, electroporated with pBJ5-FRBVP, pBJ5-GF3E and pG5IL2SX
From the text: (§1) Transcription activation by recruitment of chimeric transcriptional activation and DNA binding domains is described. COS-1 cells were electroporated with […] each of the following expression plasmids (Ho, S. N., Biggar, S. R., Spencer, D. M., Schreiber, S. L., and Crabtree, G. R. “Dimeric ligands define a role for transcriptional activation domains in reinitiation.” (1996) Nature 382, 822-826): pG5IL2SX (drives transcription of bacterial secreted alkaline phosphatase (SeAP) through GAL4 DNA binding […] elements), pBJ5-GF3E (which expresses the GAL4 DNA binding domain fused to three copies of human FKBP12), and pBJ5-FRBVP. (which expresses a FRB fusion with the Herpes Simplex Virus VP16 Activation domain) A FRB*-VP16 fusion protein which consists of modified FRB protein fused to the VP16 activation domain was also used selectively. Transfected cells were distributed equally to 96 well plates and were incubated at 37° C. for 24 to 36 hours before media was supplemented with drug in a dilution curve in which each point is represented in quadruplicate. Cells were incubated at 37° C. for an additional 24 hours followed by a 2-hour treatment at 65° C. to inactivate endogenous phosphatases. Each well was supplemented with 100μL of 1 mM methylumbelliferylphosphate dissolved in 2 M diethanolamine buffered to pH 10.0 with carbonate and incubated at 37° C. for 16 hours. Fluorescence was measured with a Fluoroscan (ICN) plate reader at 355 nm transmission and 455 nm emission using Deltasoft software.
(§2) Drug efficacy was determined in a three-plasmid transcriptional switch reporter assay. ˜106 COS1 cells were coelectroporated with 2 μg of the DNA binding construct pBJ5-Gal4-FKBP(3), 2 μg pBJ5-VP16 (or the relevant mutant FRB) and 2 μg of the Gal4-SeAP reporter. Electroporation details are available upon request. […] SeAP activity was measured by fluorescence with a Spectamax M2 fluorometer (Molecular Devices, Sunnyvale, Calif.) with transmission set at 355 nm and emmission set at 460 nm. Data was analysed with Softmax Pro (Molecular Devices), Microsoft Excel and Prism 3 (GraphPad Software).

FRB* = target: T2, FRB* (Homo sapiens, UniProt P42345+P62942, K2095P/T2098L/W2101F); assay: SeAP reporter assay, dimerization of FRB*-VP16 to FKBP3-GAL4DBD in COS-1 cells; assay type: cell-based; conditions: FRB*(PLF)-VP16; ±95% confidence intervals
T2 construct: The minimal FRB domain comprises amino acids 2025-2114 of human mTor; expressed in transfected cells; host or cells: COS-1 cells
From the text: as §1, §2

FRB*Pax6 [1] = target: T3, FRB*Pax6 (UniProt P26883+P42345, K2095P/T2098L/W2101F); assay: Whole embryo culture, inducible stabilization of FRB*Pax6; design: species or system mouse
T3 construct: The minimal FRB domain comprises amino acids 2025-2114 of human mTor; from tissue; host or cells: e13.5 cortical neural cultures (A14) and cultured whole embryos (A15) from Pax6^FRB* knock-in mice; fusion expressed from the targeted endogenous locus
Method: Uterine horns were removed from sacrificed mothers to a petri dish containing Hank's Balanced Salt Solution (HBSS), fat was removed and the uterus cut up to isolate embryos. Individual deciduum were carefully removed from the uterus by carefully pulling apart the muscular layers in a fresh petri dish containing HBSS (sometimes supplemented with 2 mg/mL glucose) under a dissecting microscope. Embryos were removed by cutting along the lateral axis of the deciduum with fine forceps taking care not to puncture the embryonic membranes and teasing off the decidual layers overlying the embryo. Embryos were then separated from the remaining decidua at the ectoplacental cone or primitive placenta (depending on the age of the embryo).
Reichert's membrane was grasped without the underlying visceral yolk sac, carefully torn away from the embryo and trimmed back to the placenta without ripping the yolk sac. […] The bottle rotated slowly in a roller bottle chamber at 37° C. Drugs were added directly to the culture media at the commencement of the culture.
Embryos were fixed overnight in 4% paraformaldehyde/PBS then dehydrated through a staged ethanol series. Endogenous peroxidases were inactivated with 5% H2O2 for 4 hours in ethanol and the embryos were rehydrated. […] Embryos were washed in block 6 hours with 1 hour changes and incubated overnight at 4° C. with […] anti-mouse secondary. Embryos were washed with PBS+0.1% Triton X-100 4 times for 1 hour and developed with the DAB peroxidase kit from Vector laboratories.
Embryos were protected with a staged series to 30% sucrose in PBS after fixation in 4% PFA (60 minutes to overnight at 4° C.). Protected embryos were embedded in OCT (VWR) frozen and sectioned on a Leica cryostat to 10 μm. Thin sections were stained according to standard protocols (obtained upon request). Secondary antibodies were purchased from Molecular Probes (Eugene, Oreg.) and primary antibodies to neurofilament, Lim3, Nkx2.2, Pax6, En1, Isl1 were obtained from Dev. Studies. Additional antibodies were from Covance, Zymed or a generous gift of Tadashi Nomura and Noriko Osumi (Sendai, Japan). Immunofluorescence was visualized by confocal microscopy.

FRB*Pax6 [2] = target: T3, FRB*Pax6; assay: Stabilization of FRB*Pax6 in cortical neural cultures (Western blot); assay type: cell-based, mouse; conditions: replacement of MaRap after 36 hours; 500 nM after 200 nM MaRap
From the text: e13.5 embryos were harvested from a Pax6^FRB*/+ intercross and cortical hemispheres isolated from individuals identified by eye and craniofacial morphology and later confirmed by genotype specific PCR. Pia were removed and neocortex dissected from […] in Hank's balanced salt solution (HBSS). Tissue was minced roughly and placed in centrifuge tubes containing HBSS+20% foetal calf serum. Tissue pieces were allowed to settle and the media was replaced first with HBSS+serum then HBSS alone. The tissue was incubated with 0.1% trypsin+2 mM EDTA 10 minutes at 37° C. then the reaction stopped with HBSS+serum. Cells were triturated to a suspension and plated on 24 well plates coated with matrigel in DMEM (high glucose) supplemented with FCS (5%), N2 (GIBCO) and antibiotics.
Extracts were prepared in RIPA buffer, protein quantified by Bradford Assay (Biorad) and 10 μg of total protein resolved by SDS-PAGE, transferred to PVDF (Millipore) filters and Pax6 or HSP90 identified with specific antibodies (1:1000, Covance and 1:2500 Transduction Laboratories, respectively) incubated 1 hour in TBS+10% nonfat milk. Secondary conjugated to horse radish peroxidase were purchased from Jackson immunochemicals and blots were developed by chemiluminescence (Amersham).

mutant FRBs = assay: SeAP transcriptional switch assay, panel of FRB mutants at 2095, 2098, 2101; assay type: cell-based, human
Method: All FRB mutants were prepared by the Quikchange mutagenesis method (Stratagene) using protocols provided by the manufacturer. Briefly, PCR reactions containing the parent plasmid pBJ5-FRB-VP16-HA or pBJ5-FRB*-VP16-HA and overlapping oligonucleotides containing the relevant base changes were performed with Pfu polymerase (Stratagene, San Diego, Calif.). PCR reactions were digested with the methylation sensitive restriction endonuclease Dpn1 to eliminate the parent plasmid and the reaction was transformed in XL10-Gold Ultracompetent E. coli (Stratagene).
Electroporation details are available upon request. Cells were immediately aliquoted to 2 or 3×96 well plates with flat bottoms. […] Data was analysed with Softmax Pro (Molecular Devices), Microsoft Excel and Prism 3 (GraphPad Software).

embryos = assay: Overt effects on mother and embryos after IP injection of pregnant mice; assay type: in vivo, mouse; conditions: 10 mg/kg/day, similarly injected
Method: GSK-3β^+/FRB* mice were intercrossed and the date of vaginal plug observation was set as E0.5. At E9.5, the stage of embryonic development was confirmed by ultrasonography (Chang, C. P. et al. “Sonographic Staging of the Developmental Status of Mouse Embryos in Utero.” (2003) Published in Genesis 36, 7-11) and mice were weighed. Drug administration commenced at E10.0. […] 100 μL was immediately injected intraperitoneally (IP) to pregnant females with injections repeated twice more at 12 hour intervals to E11.5 when mice were sacrificed, and embryos and organs were dissected and frozen in […]. Tissues anterior to the embryonic forelimbs of individual embryos were used for preparation of protein extracts with the remainder used to determine the concentration of drug and for genotyping.

Chain of GSK-3βFRB* (P42345 2025-2114 K2095P/T2098L/W2101F): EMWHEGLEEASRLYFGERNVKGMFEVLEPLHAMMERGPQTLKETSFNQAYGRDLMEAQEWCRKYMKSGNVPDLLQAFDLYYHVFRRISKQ
Chain of GSK-3βFRB* (P26883 2-108): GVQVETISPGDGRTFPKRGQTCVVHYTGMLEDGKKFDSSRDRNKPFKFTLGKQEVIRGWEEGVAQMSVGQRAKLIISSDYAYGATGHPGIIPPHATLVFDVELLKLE
T3 sequence (P42345 2025-2114 K2095P/T2098L/W2101F): as the sequence (P42345 2025-2114 K2095P/T2098L/W2101F) above
T3 sequence (P26883 2-108): as the sequence (P26883 2-108) above
T1 sequence (P42345 2025-2114): as the sequence (P42345 2025-2114 K2095P/T2098L/W2101F) above, with P71K, L74T, F77W counted along it
T1 sequence (P62942 whole entry, the tested form may be a part): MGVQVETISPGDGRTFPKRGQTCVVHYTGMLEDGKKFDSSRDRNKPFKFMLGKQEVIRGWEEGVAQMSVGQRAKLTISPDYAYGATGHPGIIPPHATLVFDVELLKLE
T2 sequence (P42345 2025-2114 K2095P/T2098L/W2101F): as the sequence (P42345 2025-2114 K2095P/T2098L/W2101F) above
T2 sequence (P62942 whole entry, the tested form may be a part): as the sequence (P62942 whole entry, the tested form may be a part) above

CC(=O)N[C@@H](CSC(=O)[C@]1([C@@H](O)C(C)C)NC(=O)[C@H](C)[C@@H]1O)C(=O)O [lactacystin, reference compound]
GSK-3βFRB* stability when stabilization is reversed with FK506 in presence of protease inhibitor (GSK-3βFRB*): remained stable

CCOC(=O)[C@H]1O[C@@H]1C(=O)N[C@@H](CC(C)C)C(=O)NCCC(C)C [E-64D, reference compound]
GSK-3βFRB* stability when stabilization is reversed with FK506 in presence of protease inhibitor (GSK-3βFRB*): did not protect

C16-(R)-methallylrapamycin [C16-MaRap]
EC50 (FRB): 273 ± 13.5 nM
EC50 (FRB*): 15.9 ± 1.5 nM

CO[C@H]1C[C@@H](C)C/C(C)=C/[C@@H](CCOC(=O)NCc2ccccc2)C(=O)C[C@H](O)[C@@H](C)[C@@H](/C(C)=C/[C@@H]2CC[C@@H](O)[C@H](OC)C2)OC(=O)[C@@H]2CCCCN2C(=O)C(=O)[C@]2(O)O[C@H]1[C@@H](OC)C[C@H]2C [FK506M, reference compound]
differentiation of Lim3-positive somatic motor neurons after transient stabilization (FRB*Pax6 [1]; 24 hours MaRap then replacement with FK506M): fail to differentiate
FRB*Pax6 immunoreactivity after transient stabilization (FRB*Pax6 [1]; 24 hours MaRap then replacement with FK506M (5 μM) 24 hours, e9.5 embryos): loss of most of the FRB*Pax6 immunoreactivity
time for stabilized FRB*Pax6 levels to drop to the basal level (FRB*Pax6 [2]): ≤ 6 h
time for GSK-3βFRB* to return to steady state low levels (GSK-3βFRB*; 300 nM after 100 nM C20-MaRap 36 h): less than 9 hours

C16-(S)-3-Methylindole rapamycin [C16-iRap]
binding to FRB mutants with Trp 2101 Phe substitution, Leu at 2098 (mutant FRBs; Phe at 2101, Leu at 2098): fully rescues drug binding
binding to FRB mutants with Trp 2101 Phe substitution, Thr at 2098 (mutant FRBs; Phe at 2101, Thr at 2098): does not bind

CO[C@H]1[C@@H](O)[C@H](C)C[C@H](C)/C=C/C=C/C=C(\C)[C@@H](c2c[nH]c3c(C)cccc23)C[C@@H]2CC[C@@H](C)[C@@](O)(O2)C(=O)C(=O)N2CCCC[C@H]2C(=O)O[C@H]([C@H](C)C[C@@H]2CC[C@@H](O)[C@H](OC)C2)C[C@H](O)[C@H](C)/C=C(\C)[C@H]1O [C16-(S)iRap, C16-(S)7-methylindolerapamycin, reference compound]
effectiveness against all mutants relative to C16-BSrap (mutant FRBs; all mutants): significantly less effective than C16-BSrap

CO[C@H]1C[C@@H]2CC[C@@H](C)[C@@](O)(O2)C(=O)C(=O)N2CCCC[C@H]2C(=O)O[C@H]([C@H](C)C[C@@H]2CC[C@@H](O)[C@H](OC)C2)CC(=O)[C@H](C)/C=C(\C)[C@@H](O)[C@@H](OC)C(=O)[C@H](C)C[C@H](C)/C=C/C=C/C=C/1C [rapamycin, reference compound]
effect on embryos (embryos): produced “flat-top” embryos

CC(C)C[C@@H](C=O)NC(=O)[C@H](CC(C)C)NC(=O)[C@H](CC(C)C)NC(=O)OCc1ccccc1 [MG132, reference compound] (Cbz-Leu-Leu-Leu-aldehyde)
GSK-3βFRB* stability when stabilization is reversed with FK506 in presence of protease inhibitor (GSK-3βFRB*): remained stable
